Results taken from patent publication US11236087B2, “Highly active pyrazolo-piperidine substituted indole-2-carboxamides active against the hepatitis B virus (HBV)” (AiCuris GmbH & Co. KG, priority 2017, dated 2022).

Legend:
HBV = experiment: Determination of HBV DNA from the supernatants of HepAD38 cells (anti-HBV activity); assay type: cell-based, hepatitis B virus; conditions: Hepatitis B virus, 144 h; HBV DNA in HepAD38 supernatant, day 6, qPCR; read-out: Cell Activity (EC50)
In short: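 HepAD38 cells, tetracycline withdrawn to induce HBV, treated with serial half-log compound dilutions; on day 6 HBV DNA purified from filtered supernatant and quantified by real-time PCR against HBV plasmid standards; EC50 from relative copy numbers by non-linear regression, three experiments in triplicate.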

[1] = Cell viability assay (AlamarBlue) in HepAD38 cells; conditions: human
HBV core protein = target: T1, HBV core protein (UniProt P03146); experiment: Biochemical capsid assembly assay (fluorescence quenching); design: species or system hepatitis B virus; conditions: read-out: Assembly Activity (IC50); BODIPY-FL labelled core protein, 300 μM NaCl, read 6 min after start
T1 construct: fused on or other part: BODIPY-FL maleimide label on the C-terminal Cys150
T1 sequence (P03146 whole entry, looked up, the tested form may be a part): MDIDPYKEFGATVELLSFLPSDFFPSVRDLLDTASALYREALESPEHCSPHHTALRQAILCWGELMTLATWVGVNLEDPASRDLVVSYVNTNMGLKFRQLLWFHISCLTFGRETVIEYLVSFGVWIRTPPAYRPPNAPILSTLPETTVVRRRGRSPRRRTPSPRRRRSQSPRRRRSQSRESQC
Protocol: Biochemical Capsid Assembly Assay
The screening for assembly effector activity was done based on a fluorescence quenching assay published by Zlotnick et al. (2007). The C-terminal truncated core protein containing 149 amino acids of the N-terminal assembly domain fused to a unique cysteine residue at position 150 and was expressed in E. coli using the pET expression system (Merck Chemicals, Darmstadt). Purification of core dimer protein was performed using a sequence of size exclusion chromatography steps. In brief, the cell pellet from 1 L BL21 (DE3) Rosetta2 culture expressing the coding sequence of core protein cloned NdeI/XhoI into expression plasmid pET21b was treated for 1 h on ice with a native lysis buffer (Qproteome Bacterial Protein Prep Kit; Qiagen, Hilden). After a centrifugation step the supernatant was precipitated during 2 h stirring on ice with 0.23 g/ml of solid ammonium sulfate. Following further centrifugation the resulting pellet was resolved in buffer A (100 mM Tris, pH 7.5; 100 mM NaCl; 2 mM DTT) and was subsequently loaded onto a buffer A equilibrated CaptoCore 700 column (GE HealthCare, Frankfurt). The column flow through containing the assembled HBV capsid was dialyzed against buffer N (50 mM NaHCO3 pH 9.6; 5 mM DTT) before urea was added to a final concentration of 3M to dissociate the capsid into core dimers for 1.5 h on ice. The protein solution was then loaded onto a 1 L Sephacryl S300 column. After elution with buffer N core dimer containing fractions were identified by SDS-PAGE and subsequently pooled and dialyzed against 50 mM HEPES pH 7.5; […]. To improve the assembly capacity of the purified core dimers a second round of assembly and disassembly starting with the addition of 5 M NaCl and including the size exclusion chromatography steps described above was performed. From the last chromatography step core dimer containing fractions were pooled and stored in aliquots at concentrations between 1.5 to 2.0 mg/ml at −80° C.
Immediately before labelling the core protein was reduced by adding freshly prepared DTT in a final concentration of 20 mM. After 40 min incubation on ice storage buffer and DTT was removed using a Sephadex G-25 column (GE HealthCare, Frankfurt) and 50 mM HEPES, pH 7.5. For labelling 1.6 mg/ml core protein was incubated at 4° C. and darkness overnight with BODIPY-FL maleimide (Invitrogen, Karlsruhe) in a final concentration of 1 mM. After labelling the free dye was removed by an additional desalting step using a Sephadex G-25 column. Labelled core dimers were stored in aliquots at 4° C. In the dimeric state the fluorescence signal of the labelled core protein is high and is quenched during the assembly of the core dimers to high molecular capsid structures. The screening assay was performed in black 384 well microtiter plates in a total assay volume of 10 μl using 50 mM HEPES pH 7.5 and 1.0 to 2.0 μM labelled core protein. Each screening compound was added in 8 different concentrations using a 0.5 log-unit serial dilution starting at a final concentration of 100 μM, 31.6 μM or 10 μM, In any case the DMSO concentration over the entire microtiter plate was 0.5%. The assembly reaction was started by the injection of NaCl to a final concentration of […] which induces the assembly process to approximately 25% of the maximal quenched signal. 6 min after starting the reaction the fluorescence signal was measured using a Clariostar plate reader (BMG Labtech, Ortenberg) with an excitation of 477 nm and an emission of 525 nm. As 100% and 0% assembly control HEPES buffer containing 2.5 M and 0 M NaCl was used. Experiments were performed thrice in triplicates. EC50 values were calculated by non-linear regression analysis using the Graph Pad Prism 6 software (GraphPad Software, La Jolla, USA).

SMILES	EC50 (HBV) [µM]	CC50 at 6 days [1] [µM]	IC50 (HBV core protein) [µM]
Cc1cc(F)cc2[nH]c(C(=O)N3CCc4n[nH]c(-c5cscn5)c4C3)cc12 [Example 26, 6-fluoro-4-methyl-2-[3-(1,3-thiazol-4-yl)-2H,4H,5H,6H,7H-pyrazolo[4,3-c]pyridine-5-carbonyl]-1H-indole]	< 1	> 10	< 5
CN(CCO)C(=O)c1n[nH]c2c1CN(C(=O)c1cc3c(C(C)(F)F)cc(F)cc3[nH]1)CC2 [Example 27, 5-[4-(1,1-difluoroethyl)-6-fluoro-1H-indole-2-carbonyl]-N-(2-hydroxyethyl)-N-methyl-1H,4H,5H,6H,7H-pyrazolo[4,3-c]pyridine-3-carboxamide]	< 1	> 10	< 5
CN(CCO)C(=O)c1n[nH]c2c1CN(C(=O)c1cc3c(F)cc(F)cc3[nH]1)CC2 [Example 28, 5-(4,6-difluoro-1H-indole-2-carbonyl)-N-(2-hydroxyethyl)-N-methyl-1H,4H,5H,6H,7H-pyrazolo[4,3-c]pyridine-3-carboxamide]	< 1	> 10	< 5
CN(CCO)C(=O)c1n[nH]c2c1CN(C(=O)c1cc3ccc(Br)cc3[nH]1)CC2 [Example 29, 5-(6-bromo-1H-indole-2-carbonyl)-N-(2-hydroxyethyl)-N-methyl-1H,4H,5H,6H,7H-pyrazolo[4,3-c]pyridine-3-carboxamide]	< 1	> 10	< 5
CN(CCO)C(=O)c1n[nH]c2c1CN(C(=O)c1cc3c(Br)cccc3[nH]1)CC2 [Example 30, 5-(4-bromo-1H-indole-2-carbonyl)-N-(2-hydroxyethyl)-N-methyl-1H,4H,5H,6H,7H-pyrazolo[4,3-c]pyridine-3-carboxamide]	< 1	> 10	< 5
CNC(C)(C)COC(=O)c1n[nH]c2c1CN(C(=O)c1cc3ccccc3[nH]1)CC2 [Example 31, 2-methyl-2-(methylamino)propyl 5-(1H-indole-2-carbonyl)-1H,4H,5H,6H,7H-pyrazolo[4,3-c]pyridine-3-carboxylate]	1 to 25	> 100	5 to 10
CNC1(COC(=O)c2n[nH]c3c2CN(C(=O)c2cc4ccccc4[nH]2)CC3)CC1 [Example 32, [1-(methylamino)cyclopropyl]methyl 5-(1H-indole-2-carbonyl)-1H,4H,5H,6H,7H-pyrazolo[4,3-c]pyridine-3-carboxylate]	< 1	> 100	< 5
CN(C(=O)c1n[nH]c2c1CN(C(=O)c1cc3ccccc3[nH]1)CC2)C1(CO)CC1 [Example 33, N-[1-(hydroxymethyl)cyclopropyl]-5-(1H-indole-2-carbonyl)-N-methyl-1H,4H,5H,6H,7H-pyrazolo[4,3-c]pyridine-3-carboxamide]	< 1	> 10	< 5
CC1(O)CN(C(=O)c2n[nH]c3c2CN(C(=O)c2cc4ccccc4[nH]2)CC3)C1 [Example 34, 1-[5-(1H-indole-2-carbonyl)-1H,4H,5H,6H,7H-pyrazolo[4,3-c]pyridine-3-carbonyl]-3-methylazetidin-3-ol]	< 1	> 15	< 100
CC1c2c(-c3cscn3)n[nH]c2CCN1C(=O)c1cc2ccccc2[nH]1 (stereo not drawn) [Example 36, 2-[4-methyl-3-(1,3-thiazol-4-yl)-1H,4H,5H,6H,7H-pyrazolo[4,3-c]pyridine-5-carbonyl]-1H-indole]	< 1	88	5 to 10
CC1Cc2[nH]nc(-c3cscn3)c2CN1C(=O)c1cc2c(Cl)cc(F)cc2[nH]1 (stereo not drawn) [Example 37, 4-chloro-6-fluoro-2-[6-methyl-3-(1,3-thiazol-4-yl)-1H,4H,5H,6H,7H-pyrazolo[4,3-c]pyridine-5-carbonyl]-1H-indole]	< 1	> 32	5 to 10
CC1Cc2[nH]nc(-c3cscn3)c2CN1C(=O)c1cc2ccccc2[nH]1 (stereo not drawn) [Example 38, 2-[6-methyl-3-(1,3-thiazol-4-yl)-1H,4H,5H,6H,7H-pyrazolo[4,3-c]pyridine-5-carbonyl]-1H-indole]	< 1	100	< 5
CC(C)(O)C1CN(C(=O)c2n[nH]c3c2CN(C(=O)c2cc4ccccc4[nH]2)CC3)C1 [Example 39, 2-{1-[5-(1H-indole-2-carbonyl)-1H,4H,5H,6H,7H-pyrazolo[4,3-c]pyridine-3-carbonyl]azetidin-3-yl}propan-2-ol]	1 to 25	> 32	< 100
O=C(c1cc2ccccc2[nH]1)N1CCc2[nH]nc(C(=O)N3CC(O)C3)c2C1 [Example 40, 1-[5-(1H-indole-2-carbonyl)-1H,4H,5H,6H,7H-pyrazolo[4,3-c]pyridine-3-carbonyl]azetidin-3-ol]	1 to 25	> 100	< 5
CC(O)CN(C)C(=O)c1n[nH]c2c1CN(C(=O)c1cc3ccccc3[nH]1)CC2 (stereo not drawn) [Example 41, N-(2-hydroxypropyl)-5-(1H-indole-2-carbonyl)-N-methyl-1H,4H,5H,6H,7H-pyrazolo[4,3-]pyridine-3-carboxamide]	< 1	> 100	< 5
CC(CO)N(C)C(=O)c1n[nH]c2c1CN(C(=O)c1cc3ccccc3[nH]1)CC2 (stereo not drawn) [Example 42, N-(1-hydroxypropan-2-yl)-5-(1H-indole-2-carbonyl)-N-methyl-1H,4H,5H,6H,7H-pyrazolo[4,3-c]pyridine-3-carboxamide]	1 to 25	> 100	5 to 10
CN(CC(C)(C)O)C(=O)c1n[nH]c2c1CN(C(=O)c1cc3ccccc3[nH]1)CC2 [Example 43, N-(2-hydroxy-2-methylpropyl)-5-(1H-indole-2-carbonyl)-N-methyl-1H,4H,5H,6H,7H-pyrazolo[4,3-c]pyridine-3-carboxamide]	< 1	> 32	5 to 10
O=C(c1cc2ccccc2[nH]1)N1CCc2[nH]nc(C(=O)N3CC(CCO)C3)c2C1 [Example 44, 2-{1-[5-(1H-indole-2-carbonyl)-1H,4H,5H,6H,7H-pyrazolo[4,3-c]pyridine-3-carbonyl]azetidin-3-yl}ethan-1-ol]	1 to 25	> 100	< 100
O=C(c1cc2ccccc2[nH]1)N1CCc2[nH]nc(C(=O)N3CC(CO)C3)c2C1 [Example 45, {1-[5-(1H-indole-2-carbonyl)-1H,4H,5H,6H,7H-pyrazolo[4,3-c]pyridine-3-carbonyl]azetidin-3-yl}methanol]	1 to 25	> 100	< 100
O=C(c1cc2c(Cl)cc(F)cc2[nH]1)N1CCc2[nH]nc(-c3cscn3)c2C1 [Example 46, 4-chloro-6-fluoro-2-[3-(1,3-thiazol-4-yl)-1H,4H,5H,6H,7H-pyrazolo[4,3-c]pyridine-5-carbonyl]-1H-indole]	< 1	> 100	< 5
O=C(c1cc2ccccc2[nH]1)N1CCc2[nH]nc(-c3cscn3)c2C1 [Example 47, 2-[3-(1,3-thiazol-4-yl)-1H,4H,5H,6H,7H-pyrazolo[4,3-c]pyridine-5-carbonyl]-1H-indole]	< 1	> 100	< 5
